Experiments:
[1] = tested on: A431 cells; assay: Phosphoproteomic analysis, Proteome Profiler array of 46 signaling proteins; format: cell-based, human
Method: For phosphoproteomic analysis, we used the Proteome Profiler™ array (R&D Systems, Minneapolis, Minn., USA) according to the manufacturer's protocol. In brief, A431 cells were grown for 24 hours in DMEM supplemented with L-glutamine and 1% FBS to 70% confluency. Cells then were either serum starved overnight or remained in the same media. Serum starved and cells incubated in 1% serum were either left untreated or incubated with IC30 concentrations of inhibitors for 3 hours. […] Serum-starved cells were subsequently stimulated with recombinant EGF (Sigma-Aldrich, USA) at 15 ng/mL for 15 minutes before lysis. For a subset of phospho-proteins, phosphorylation status was confirmed by Western blot. Quantification was done using ImageJ software.

[2] = tested on: EGFR, ERK1/2 and AKT phosphorylation; assay: Western analysis of EGFR pathway after inhibitor treatment and EGF stimulation; format: cell-based, human
[3] = tested on: cancer cells; assay: Drug synergy testing (Chou-Talalay CI), cell line not stated (FIG. 17B); format: cell-based
Method: (§1) The coefficient of interaction (CI) between pharmacological inhibitors was established by the Chou-Talalay method (Chou et al., (1984) Adv Enzyme Regul 22:27). The software package CalcuSyn (BioSoft, UK) was used to automate calculations. Briefly, for each drug tested, an IC50 curve was established in each cell line, and used to select combination doses of drugs for subsequent synergy tests. 3500 cells were plated per well in 96-well plates. After 24 hours, cells were treated with serial dilutions of individual inhibitors, or combinations of two inhibitors maintained at a constant molar ratio. After 72 hours incubation, cell viability was measured using either CellTiter Blue (Promega, USA) or a WST1 assay (Roche Applied Science, Indianapolis, Ind.). The CI values for each dose and corresponding cytotoxicity were expressed as the fraction affected (Fa) and were calculated using CalcuSyn computer software and presented as Fa-CI plots. CI values <1 indicate synergy, and <0.5 strong synergy, between the two agents in producing cytotoxic effect.

[4] = tested on: HCT116 cells; assay: Apoptosis after drug combination treatment; format: cell-based, human; settings: HCT116, 72 hours (FIG. 17C)
[5] = tested on: HCT116 cells; assay: Drug synergy testing (Chou-Talalay CI), viability; format: cell-based, human
Method: as §1

[6] = tested on: A431 cells; assay: Drug synergy testing (Chou-Talalay CI), viability; format: cell-based, human; settings: 72 hours, CI <1 synergy, <0.5 strong synergy
Method: as §1

[7] = A431, serum starved, EGF-stimulated (FIG. 19A)
[8] = PHA-680632 alone, transient EGF stimulation

With `CCc1cccc(CC)c1NC(=O)N1Cc2n[nH]c(NC(=O)c3ccc(N4CCN(C)CC4)cc3)c2C1` [PHA-680632] the “Phosphorylation of 46 signaling proteins, combination of erlotinib and PHA-680632” value ([1]; A431, 1% serum steady state, erlotinib 0.5 μM plus PHA 0.1 μM (FIG. 19B)) was “significant reduction in activity of STAT3, and a group of Src kinases”, the “Phosphorylation of 46 signaling proteins, combination of erlotinib and PHA-680632” value [1, 7] was “specific inhibition of a subset of proteins” and the “Phosphorylation of 46 signaling proteins, single agent” value [1, 7] was “little effect”. The “S473-AKT phosphorylation, combination with erlotinib” value ([2]; 3 hrs inhibitors then EGF, vs either agent alone (FIGS. 17H, 18; HCT116)) was “very significantly reduced”, the “EGFR expression, autophosphorylation, and activation” value [2, 8] was “did not inhibit” and the “ERK1/2 or AKT phosphorylation” value [2, 8] was “little effect”. The “Synergy with cetuximab (Chou-Talalay CI)” value [3] was “synergized”, the “Frequency of apoptosis, combination with erlotinib” value [4] was “increases apoptosis” and the “Cell viability, combination with erlotinib” value ([5]; HCT116 (FIG. 17D)) was “Dose-dependent inhibition”. For the same molecule, the “Synergy with erlotinib in reducing viability (Chou-Talalay CI)” value ([5]; HCT116, 72 hours, CI <1 synergy, <0.5 strong synergy) was “synergized strongly” and the “Synergy with erlotinib in reducing viability (Chou-Talalay CI)” value [6] was “synergized strongly”.

From patent publication US10450613B2, “EGFR/NEDD9/TGF-β interactome and methods of use thereof for the identification of agents having efficacy in the treatment of hyperproliferative disorders” (Fox Chase Cancer Center, priority 2007, dated 2019)
